Assay results published in patent publication US8658649B2, “Kinase inhibitor” (Sanofi, priority 2006, dated 2014).

Tests used:
[1] = target: T1, Syk (Homo sapiens, UniProt P43405); assay: Syk substrate phosphorylation, Streptavidin FlashPlate; format: biochemical; conditions: 7.77 nM Flag-tagged Syk, PGT-Biotin substrate, 33P-ATP
T1 construct: Flag; made in house
Source text: • Assay Name: Spleen Tyrosine (Y) Kinase • Short Name: Syk • Assay Format: Substrate Phosphorylation • Detection Format: Streptavidin FlashPlate • Modulation: Inhibition
Streptavidin FlashPlate Plus microplates from PerkinElmer Life Sciences™ are designed for in-plate radiometric assays. The interior of each well is permanently coated with a thin layer of polystyrene-based scintillant followed by covalent binding of Streptavidin. These plates are suitable for a wide variety of assay applications which utilize biotinylated capture molecules. Poly (Glu,Tyr) 4:1 (PGT) is a random copolymer that can act as a substrate for tyrosine-specific protein kinases. The assay measures the phosphorylation of PGT-Biotin substrate by Syk. The enzyme transfers the [γ^33P]-phosphate from [γ^33P]-ATP to the polymeric substrate. The assay was run in solution in a non-binding 384-well plate. After stopping the reaction using phosphoric acid, the reaction mixture was transferred to a 384-well Streptavidin Flashplate. The biotinylated substrate was captured onto the plate and other reagents including hot ATP were washed away. Each well was then counted for radioactivity.
The enzyme reaction was run in a 384-well non-binding plate. […] Radioactivity was counted on a Top Count™ scintillation counter. […]

[2] = system: Collagen-induced arthritis (CIA); assay: Rat collagen induced arthritis, combination dosing with Methotrexate; format: in vivo
Experimental: Immunization and Challenge: Female Lewis rats were immunized on day 0 and challenged on day 7 with cII from bovine nasal mixed with Freund's incomplete adjuvant at a final collagen concentration of 1.0 mg/ml. The animals were injected at the base of the tail with 400 μg of cII. Combination Dosing Regimen: Rats were dosed with the compound of Formula I (3.0 and 10 mg/kg, p.o., bi.d.) or Methotrexate (MTX, 0.1 and 0.2 mg/kg, p.o., q.d.) as monotherapy or in combinations consisting of each dose of the compound of Formula I with each dose of MTX starting on day 6 and continuing through day 21. Joint Pathology Ankle joint swelling was measured to the nearest 0.01 mm by using electronic digital calipers. Measurements were recorded 7 times throughout the study starting on day 6 and ending on day 21. Body weights were recorded on the same days. On day 21, hind paws were removed at the hairline just above the ankle and fixed in 10% neutral buffered formalin. MicroCT analysis: Ankle joints were examined using a cone-beam μCT scanner. A scout view scan was obtained first for selection of the examination volume of the specimens, followed by positioning, measurement and computational reconstruction. In ankle joints, the ratio of bone surface to bone volume, describing the complexity of bone surface in a certain volume, was analyzed. Statistical Analysis For joint swelling/inflammation, data were analyzed using Everstat v.5 software and a 2-way repeated measure ANOVA with Dunnett's post test. MicroCT data were analyzed by Everstat using a 1-way ANOVA and Newman-Keuls multiple comparison test.

CCc1c(-c2ccc(C(C)(C)O)cc2)[nH]c2nccnc12 [compound of Formula I, 2-[4-(7-Ethyl-5H-pyrrolo[2,3-b]pyrazin-6-yl)-phenyl]-propan-2-ol]
IC50 [1]: 1.7 nM | disease severity as measured by joint swelling/inflammation ([2]; 3.0 mg/kg monotherapy): failed to significantly impact on disease severity | bone erosion, MicroCT ([2]; 3 mg/kg monotherapy, vs vehicle): significant decrease was not observed | ankle swelling/inflammation ([2]; 10 mg/kg monotherapy, vs vehicle, days 15 through 21): significantly reduced ankle swelling/inflammation | bone erosion, MicroCT ([2]; 10 mg/kg po bid monotherapy, vs vehicle): significant decrease in bone erosion
